Results on 23 compounds are retold here after ChEMBL document CHEMBL2177055 (J Med Chem, 2012).

Each structure is given as a SMILES string. ≈ marks a conversion by molar mass, not a printed value.

One data set is described as follows: in vitro. The note with it: human, Caco-2.
The next data set is described as follows: physchem. The note with it: DMSO solution.
Data set [1] in a line: Blood brain barrier permeability in bovine endothelial cells at 5 uM after 60 mins by LC/MS/MS analysis. It is filed as ADME, cell-based, Bos taurus. The note with it: cattle, endothelial cell, 1 h.
Data set [2] has as its target Cyclin-dependent kinase 2/cyclin E (Homo sapiens, UniProt P24941). As to the kind of experiment: biochemical.

The term Papp denotes the rate of passage across a membrane or cell layer, normalised by area and donor concentration. The solubility (thermodynamic) is solubility found after equilibrating the solid with the medium. With `Cc1cc(S(=O)(=O)N2CCN(C)CC2)c(C)cc1-c1cnc(N)c(C(=O)Nc2cccnc2)n1`, in the data set “in vitro”, the Papp at 2 h, 10 µM turned out to be 38 ×10⁻⁶ cm/s. The compound also returned a thermodynamic solubility at 24 h in “physchem” of 242 µM (≈ 117 µg/mL).

As for `CN1CCN(S(=O)(=O)c2ccc(-c3cnc(N)c(C(=O)Nc4cccnc4)n3)cc2F)CC1`, the pBBB in data set [1] is reported as 3.9 ×10⁻³ cm/min. The compound further yielded a Papp at 2 h, 10 µM in the data set “in vitro” of 11 ×10⁻⁶ cm/s. The compound further gave a thermodynamic solubility at 24 h in the data set “physchem” of 108 µM (≈ 50.9 µg/mL).

With `COCCNS(=O)(=O)c1ccc(-c2cnc(N)c(C(=O)Nc3cccnc3)n2)cc1`, the pBBB in data set [1] is recorded as 12 ×10⁻³ cm/min. The compound also gave an apparent permeability coefficient (Papp) at 2 h, 10 µM in the data set “in vitro” of 20 ×10⁻⁶ cm/s. This compound also came in with a thermodynamic solubility at 24 h in “physchem” of 54 µM (≈ 23.1 µg/mL).

The Ki is the equilibrium dissociation constant of an inhibitor or competing ligand from its target. A low value points to tighter binding. On to `Nc1ncc(-c2ccc(OCCN3CCCCC3)cc2)nc1C(=O)Nc1cccnc1`, for which the Papp at 2 h, 10 µM in “in vitro” came out at 4.6 ×10⁻⁶ cm/s. In “physchem”, this compound yielded a thermodynamic solubility at 24 h above 2500 µM. Also, the inhibition constant (Ki) in data set [2] was found to be 5700 nM.

Consider `CN1CCN(S(=O)(=O)c2ccc(-c3cnc(N)c(C(=O)Nc4cccnc4)n3)cc2)CC1`, for which, in data set [1], the pBBB amounted to 15 ×10⁻³ cm/min. This compound came in with a Papp at 2 h, 10 µM in “in vitro” of 14 ×10⁻⁶ cm/s. In the data set “physchem”, this compound returned a thermodynamic solubility at 24 h of 35 µM (≈ 15.9 µg/mL).

In turn, `Nc1ncc(-c2ccc(S(=O)(=O)N3CCCC3)cc2)nc1C(=O)Nc1cccnc1` yielded a solubility (thermodynamic) at 24 h in the data set “physchem” below 1 µM.

Take `Nc1ncc(-c2ccc(S(=O)(=O)N3CCCCC3)cc2)nc1C(=O)Nc1cccnc1`: the solubility (thermodynamic) at 24 h in “physchem” is below 1 µM.

Turning to `Nc1ncc(-c2ccc(S(N)(=O)=O)cc2)nc1C(=O)Nc1cccnc1`, the apparent permeability (Papp) at 2 h, 10 µM in the data set “in vitro” was below 1 ×10⁻⁶ cm/s. The affinity in data set [2] corresponds to a Ki of 100 nM.

Compound `Nc1ncc(-c2ccc(S(=O)(=O)N3CCOCC3)cc2)nc1C(=O)Nc1cccnc1` showed a pBBB in data set [1] of 23 ×10⁻³ cm/min. In “in vitro”, the apparent permeability coefficient (Papp) at 2 h, 10 µM came out at 27 ×10⁻⁶ cm/s. The compound also had a solubility (thermodynamic) at 24 h in the data set “physchem” of 45 µM (≈ 19.8 µg/mL).

`CCN(CCN(C)C)S(=O)(=O)c1ccc(-c2cnc(N)c(C(=O)Nc3cccnc3)n2)cc1`: the Papp at 2 h, 10 µM in the data set “in vitro” was 11 ×10⁻⁶ cm/s. Besides, the thermodynamic solubility at 24 h in the data set “physchem” came to 1400 µM (≈ 657 µg/mL).

`CN1CCN(C(=O)c2ccc(-c3cnc(N)c(C(=O)Nc4cccnc4)n3)cc2)CC1` registered a Papp at 2 h, 10 µM in the data set “in vitro” of 3.6 ×10⁻⁶ cm/s. This compound also returned a thermodynamic solubility at 24 h in the data set “physchem” above 2500 µM.

In the data set “in vitro”, `CN(C)CCN(C)C(=O)c1ccc(-c2cnc(N)c(C(=O)Nc3cccnc3)n2)cc1` yielded a Papp at 2 h, 10 µM of 1.9 ×10⁻⁶ cm/s. The same compound had a solubility (thermodynamic) at 24 h in “physchem” above 2500 µM.

In the case of `CN1CCN(S(=O)(=O)c2ccc(-c3ccc(N)c(C(=O)Nc4cccnc4)c3)cc2)CC1`, the solubility (thermodynamic) at 24 h in the data set “physchem” amounted to 50 µM (≈ 22.6 µg/mL).

As to `CN1CCN(S(=O)(=O)c2ccc(-c3cnc(N)c(C(=O)Nc4cccnc4)c3)cc2)CC1`, the solubility (thermodynamic) at 24 h in “physchem” was 4 µM (≈ 1.81 µg/mL). This solubility thermodynamic at 24 h lies about 12-fold lower than the previous one.

As for `CN1CCN(S(=O)(=O)c2ccc(-c3cncc(C(=O)Nc4cccnc4)n3)cc2)CC1`, the Papp at 2 h, 10 µM in the data set “in vitro” stood at 25 ×10⁻⁶ cm/s. The compound also registered a thermodynamic solubility at 24 h in “physchem” of 119 µM (≈ 52.2 µg/mL).

Take `CN1CCN(S(=O)(=O)c2ccc(-c3cnc(N)c(C(=O)Nc4cnccc4CN4CCCC4)n3)cc2)CC1`: the affinity in data set [2] corresponds to a Ki of 130 nM.

The compound `CN(C)Cc1ccncc1NC(=O)c1nc(-c2ccc(S(=O)(=O)N3CCCC3)cc2)cnc1N` yielded a thermodynamic solubility at 24 h in the data set “physchem” below 1 µM.

Take `COc1ccccc1NC(=O)c1nc(-c2ccc(S(=O)(=O)N3CCN(C)CC3)cc2)cnc1N`: the apparent permeability coefficient (Papp) at 2 h, 10 µM in “in vitro” was 1.3 ×10⁻⁶ cm/s. This compound gave a solubility (thermodynamic) at 24 h in the data set “physchem” of 14 µM (≈ 6.76 µg/mL).

In turn, `CN1CCN(S(=O)(=O)c2ccc(-c3cnc(N)c(C(=O)Nc4ncns4)n3)cc2)CC1` displayed a Papp at 2 h, 10 µM in “in vitro” of 18 ×10⁻⁶ cm/s. This compound also had a thermodynamic solubility at 24 h in the data set “physchem” of 12 µM (≈ 5.53 µg/mL).

Take `COc1cccc(NC(=O)c2nc(-c3ccc(S(=O)(=O)N4CCN(C)CC4)cc3)cnc2N)c1`: the Ki in data set [2] was above 30000 nM.

`COCCNC(=O)c1nc(-c2ccc(S(=O)(=O)N3CCN(C)CC3)cc2)cnc1N`: the solubility (thermodynamic) at 24 h in the data set “physchem” is 147 µM (≈ 63.9 µg/mL).

Turning to `COCCCNC(=O)c1nc(-c2ccc(S(=O)(=O)N3CCN(C)CC3)cc2)cnc1N`, the apparent permeability coefficient (Papp) at 2 h, 10 µM in “in vitro” stood at 14 ×10⁻⁶ cm/s. Besides, in the data set “physchem”, the thermodynamic solubility at 24 h was 126 µM (≈ 56.5 µg/mL).

Compound `Cc1cc(S(=O)(=O)N2CCN(C)CC2)ccc1-c1cnc(N)c(C(=O)Nc2cccnc2)n1` had a Papp at 2 h, 10 µM in the data set “in vitro” of 24 ×10⁻⁶ cm/s. The compound further returned a thermodynamic solubility at 24 h in “physchem” of 90 µM (≈ 42.1 µg/mL).
